{"source": "patent US5874597A", "about": "“Certain aminosterol compounds and pharmaceutical compositions including these compounds” (priority 1995, dated 1999)", "key": {"B16 melanoma": {"tested_on": "B16 melanoma", "experiment": "suppression of B16 melanoma growth in C57B mice", "assay_type": "in vivo, mouse", "procedure": "The growth of B16 melanoma in C57B mice is dependent upon neovascularization.\nUsing the growth of B16 melanoma cells in C57B mice, a recognized model for the evaluation of inhibitors of angiogenesis on the growth of cancers, the effects of subcutaneous, intraperitoneal and oral administration of squalamine were evaluated.\nBased on the idea that tumor growth involves both the clonal expansion of a malignant cell along with the development of a supporting vascular supply, a combination of compound 1436 with squalamine was tested to determine whether it would achieve a synergistic effect on solid tumor growth. This concept was evaluated in the B16 melanoma model.\nAnimals were implanted with B16 melanoma followed by treatment with compound 1436 or 1256 administered in a combined schedule or separately. […] Thus, a combination of these two compounds achieves a therapeutic benefit in tumors dependent on neovascularization that may prevent metastatic spread."}, "[1]": {"tested_on": "human foreskin fibroblasts", "experiment": "growth inhibition of human fibroblasts", "settings": "10 μg/ml"}, "[2]": {"tested_on": "human microvascular cells", "experiment": "inhibition of endothelial cell cord formation in vitro", "assay_type": "cell-based", "settings": "at cord-inhibiting concentrations", "excerpt": "Endothelial cells have the capacity in vitro to form tubular aggregates resembling capillaries in various early stages of formation. This conversion occurs under relatively specific conditions, in which essential growth factors along with an effective substratum are provided. It has been shown that both the interaction of growth factors with the endothelial cell and its attachment to a substratum activate the NHE. The activation of this exchanger is believed to be required for subsequent morphologic transformation of the endothelial cell into a multicellular tubular structure.\nTo assess the effect of compounds on the cord-like structures formed by human microvascular cells when plated in the presence of VEGF (Vascular Endothelial Growth Factor) and basic fibroblast growth factor on a collagen matrix, a standard cord formation assay was used."}, "[3]": {"tested_on": "chorioallantoic membrane capillaries", "experiment": "chorioallantoic membrane (CAM) model, inhibition of capillary growth", "assay_type": "in vivo, chick", "settings": "for Percentage positive, Assay 1 / Percentage positive, Assay 2 / Percentage positive, Mean: 3-Day Embryo", "excerpt": "The growing capillaries within the chorioallantoic membrane model (CAM model) have been used as a system in which to evaluate the effect of agents on their potential to inhibit new vessel growth. Neovascularization occurs most aggressively over the first week of embryonic development. Thereafter capillary growth is characterized by principally \"elongation\" rather than \"de novo\" formation.\nIn the standard assay, agents are applied locally to a region of the embryo over which neovascularization will occur. Agents are assessed by their ability to inhibit this process, as evaluated by visual examination about 7 days after application. […] The assay utilized is described in detail in Auerbach et al., Pharm. Ther. 51, 1991, 1-11."}, "human melanoma 1205Lu": {"tested_on": "human melanoma 1205Lu", "experiment": "suppression of human melanoma 1205Lu in RAG-1 mice", "assay_type": "in vivo", "settings": "10, 20, 40 mg/kg/d", "excerpt": "As apparent from FIG. 5, melanoma 1205Lu develops aggressively in RAG-1 mice after implantation."}, "rabbit NHE3": {"target": "rabbit NHE3 (Oryctolagus cuniculus, UniProt P26432)", "sequence (P26432 30-832)": "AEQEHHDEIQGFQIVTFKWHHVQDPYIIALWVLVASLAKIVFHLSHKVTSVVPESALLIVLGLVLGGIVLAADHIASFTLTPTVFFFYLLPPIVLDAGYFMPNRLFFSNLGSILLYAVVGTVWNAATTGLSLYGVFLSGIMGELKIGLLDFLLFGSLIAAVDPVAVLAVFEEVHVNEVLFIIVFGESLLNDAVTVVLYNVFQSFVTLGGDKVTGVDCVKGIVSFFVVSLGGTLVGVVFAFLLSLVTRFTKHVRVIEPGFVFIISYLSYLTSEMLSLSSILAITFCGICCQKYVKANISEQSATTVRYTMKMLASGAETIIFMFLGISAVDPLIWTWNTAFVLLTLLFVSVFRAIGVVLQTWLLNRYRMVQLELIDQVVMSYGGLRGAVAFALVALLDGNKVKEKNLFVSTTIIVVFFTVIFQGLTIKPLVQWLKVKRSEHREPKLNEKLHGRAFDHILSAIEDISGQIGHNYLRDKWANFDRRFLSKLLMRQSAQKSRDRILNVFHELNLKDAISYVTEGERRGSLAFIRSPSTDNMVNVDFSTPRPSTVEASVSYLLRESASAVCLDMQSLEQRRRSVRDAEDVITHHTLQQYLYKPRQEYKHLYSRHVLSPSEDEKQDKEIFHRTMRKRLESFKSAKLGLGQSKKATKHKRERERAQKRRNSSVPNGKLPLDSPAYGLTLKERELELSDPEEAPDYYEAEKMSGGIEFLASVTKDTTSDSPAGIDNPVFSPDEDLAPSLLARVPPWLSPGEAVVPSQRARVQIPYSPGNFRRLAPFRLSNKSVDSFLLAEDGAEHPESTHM", "experiment": "inhibition of rabbit NHE3 in transfected PS120 fibroblasts (internal pH, BCECF-AM)", "method": "Internal pH was measured either following acid loading or in the absence of an acid-loading challenge, with the results shown in FIGS. 1A and 1B.\nSpecifically, PS120 fibroblasts transfected with rabbit NHE3 were grown in supplemented Dulbecco's-modified Eagle's medium as described by Levine et al., J. Biol. Chem. 268, 1993, 25527-25535. […] For cells not acid-preloaded, the actual internal pH value was monitored as a function of time following addition of squalamine, with the results depicted in FIG. 1B.\nPS120 fibroblasts transfected with rabbit NHE3 were grown and acid preloaded by exposure to 40 mM NH4 Cl as described above in conjunction with FIGS. 1A and 1B. Internal cellular pH changes expressed as the rate of pH recovery as a function of restored extracellular sodium ion concentration following exposure to 10 μg/ml of the compound were assayed with the fluorescent dye BCECF-AM as described above."}, "[4]": {"tested_on": "Xenopus tadpole (stage 59-60)", "experiment": "Xenopus tadpole assay", "assay_type": "in vivo, Xenopus laevis", "settings": "10 μg/ml; about 1 hour"}, "[5]": {"tested_on": "Human coronary artery smooth muscle cells", "experiment": "proliferation of human coronary artery smooth muscle in vitro", "assay_type": "cell-based", "settings": "FIG. 15", "excerpt": "As set forth in Table 7 below, all malignant tumors evaluated in tissue culture, endothelial cells and vascular smooth muscle cells were sensitive to inhibition. Thus, compound 1436 has application in the control of growth factor dependent proliferation of many types of tissue.\nAminosterols of the invention may also have utility in inhibiting the growth factor mediated proliferation of smooth muscle within the artery. Following coronary angioplasty, reocclusion commonly occurs, secondary to reparative proliferation of the vascular smooth muscle within the wall of the surgically manipulated blood vessel. This process generally takes place over the course of 7-10 days. To evaluate whether an agent could prevent the growth factor mediated proliferation of smooth muscle within the artery, compound 1436 was evaluated in vitro for its effect on the proliferation of human coronary artery smooth muscle. Results for compound 1436 are shown in FIG. 13, and those for squalamine are shown in FIG. 14, with FIG. 15 being a composite logarithmic plot."}, "[6]": {"tested_on": "vitelline capillaries of chick embryo", "experiment": "chick embryo vitelline capillary regression assay", "assay_type": "in vivo", "settings": "in vivo", "procedure": "Using the chick embryo vitelline capillaries assay, compounds were tested for their ability to induce capillary regression. Each compound was applied in 0.1 ml of 15% Ficol 400 and PBS onto the embryo, and vascular regression was assessed after 60 minutes.\nThe 3-day chick embryo consists of an embryonic disc from which numerous vessels emerge and return, forming a \"figure 8\"-shaped structure--the embryo in the center with vascular loops extending outward over both poles. […] Following a lag period of around 15 minutes, the constriction of continuity between capillary and secondary vessels, generally on the \"venous\" side, was observed. Continued pulsatile blood flow progressed, resulting in a \"swelling\" of the blind tube, followed by a pinching off of the remaining connection and formation of an enclosed vascular sac resembling a \"blood island.\" This process progressed until only the largest vessels remained intact."}, "[7]": {"tested_on": "human epithelial cell line MCF 10A", "experiment": "growth inhibition of human epithelial cells", "settings": "10 μg/ml"}, "[8]": {"tested_on": "human umbilical venous endothelial cells", "experiment": "LPS/TNF-α-induced neutrophil adherence to human umbilical venous endothelial cells", "assay_type": "cell-based", "settings": "three different subjects; LPS or TNF-α activated", "excerpt": "Methods 109, 1988, 175-184."}, "NHE": {"tested_on": "NHE", "experiment": "direct inhibition of NHE", "excerpt": "Moreover, other aminosterols have shown anti-angiogenic activity. Compounds were subjected to a various assays, including the chick embryo capillary regression assay, the tadpole assay, the assay for inhibition of endothelial cord formation, and the assay for direct inhibition of NHE, as described above, to determine their utilities. As evident from the above data, correlation among the results from the chick, tadpole and in vitro inhibition of endothelial cell cord formation assays is excellent."}, "[9]": {"settings": "20 μg, * = some vascular irritation noted"}, "[10]": {"settings": "40 μg, * = some vascular irritation noted"}}, "note": "Entries after “also recorded” stand apart in the source; their conditions may differ."}
{"molecule": "CC(C)[C@@H](CC[C@@H](C)[C@H]1CC[C@H]2[C@@H]3[C@H](O)C[C@H]4C[C@@H](NCCCNCCCCN)CC[C@]4(C)[C@H]3CC[C@]12C)OS(=O)(=O)O", "note": "[squalamine]", "values": [{"measurement": "impact on tumor volume", "setting": "B16 melanoma; squalamine 5 mg/kg/day alone", "result": "no significant impact on tumor volume"}, {"measurement": "suppression of B16 tumor volume", "setting": "B16 melanoma; squalamine s.c., i.p. or oral, C57B mice", "result": "dose-dependent suppression of tumor volume"}, {"measurement": "body weight and hematologic parameters", "setting": "B16 melanoma; squalamine-treated mice", "result": "no significant depression"}, {"measurement": "growth of fibroblast line", "setting": "[1]", "result": "no effect"}, {"measurement": "effect on cell viability or proliferation in cord assay", "setting": "[2]", "result": "does not appear to profoundly affect cell viability or proliferation"}, {"measurement": "Percentage positive, Assay 1", "setting": "[3]; 0.65 μg", "result": 28, "unit": "%"}, {"measurement": "Percentage positive, Assay 1", "setting": "[3]; 1.25 μg", "result": 18, "unit": "%"}, {"measurement": "Percentage positive, Assay 2", "setting": "[3]; 1.25 μg", "result": 18, "unit": "%"}, {"measurement": "Percentage positive, Mean", "setting": "[3]; 1.25 μg", "result": 18, "unit": "%"}, {"measurement": "Percentage positive, Assay 1", "setting": "[3]; 2.5 μg", "result": 35, "unit": "%"}, {"measurement": "Percentage positive, Assay 2", "setting": "[3]; 2.5 μg", "result": 18, "unit": "%"}, {"measurement": "Percentage positive, Mean", "setting": "[3]; 2.5 μg", "result": 27, "unit": "%"}, {"measurement": "Percentage positive, Assay 1", "setting": "[3]; 5.0 μg", "result": 91, "unit": "%"}, {"measurement": "Percentage positive, Assay 2", "setting": "[3]; 5.0 μg", "result": 57, "unit": "%"}, {"measurement": "Percentage positive, Mean", "setting": "[3]; 5.0 μg", "result": 74, "unit": "%"}, {"measurement": "Percentage positive, Mean", "setting": "[3]; 20 μg", "result": 55, "unit": "%"}, {"measurement": "Percentage positive, Assay 1", "setting": "[3]; [9]", "result": "52* %"}, {"measurement": "Percentage positive, Assay 2", "setting": "[3]; [9]", "result": "58* %"}, {"measurement": "Percentage positive, Mean", "setting": "[3]; 40 μg", "result": 32, "unit": "%"}, {"measurement": "Percentage positive, Assay 1", "setting": "[3]; [10]", "result": "50* %"}, {"measurement": "Percentage positive, Assay 2", "setting": "[3]; [10]", "result": "13* %"}, {"measurement": "positive, Assay 1 (count)", "setting": "[3]; 13-Day Embryo, 5.0 μg", "result": "0/26"}, {"measurement": "inhibitory effect on older CAM", "setting": "[3]; 13-day old chick, ten times 0.65 μg", "result": "no inhibitory effect"}, {"measurement": "suppression of growth of melanoma 1205Lu", "setting": "human melanoma 1205Lu", "result": "clear suppression of tumor growth in a dose-dependent fashion; also recorded: reversible"}, {"measurement": "specificity NHE3 over NHE1", "setting": "rabbit NHE3", "result": "specificity for NHE3 over NHE1"}, {"measurement": "inhibition of NHE3 (Km and Vmax)", "setting": "rabbit NHE3; 5 μg/ml, acid-preloaded 40 mM NH4Cl", "result": "inhibited NHE3 with respect to proton concentration at both Km and Vmax levels"}, {"measurement": "resting pH of cells", "setting": "rabbit NHE3; 5 μg/ml, not acid-preloaded", "result": "the resting pH of these cells was also inhibited"}, {"measurement": "tadpole response", "setting": "[4]", "result": "blood flow through the capillaries of the tail shut down; also recorded: unaltered blood flow through the fine capillaries of the hands and feet; also recorded: common vascular occlusive effect; also recorded: Vascular occlusion in fine capillaries of tail; also recorded: No effect on vascular flow through hands or feet"}, {"measurement": "suppression of growth of human coronary artery smooth muscle", "setting": "[5]", "result": "suppress in vitro the growth of human coronary artery smooth muscle"}, {"measurement": "effect on vitelline capillaries / chick embryo", "setting": "[6]", "result": "disrupt vitelline capillaries in 3- to 5-day chick embryos; also recorded: No hemorrhage was seen; also recorded: absence of hemolysis; also recorded: especially active"}, {"measurement": "growth of epithelial line", "setting": "[7]", "result": "no effect"}, {"measurement": "inhibition of neutrophil adherence", "setting": "[8]", "result": "no inhibition"}]}
{"molecule": "C[C@H](CCC(=O)O)[C@H]1CC[C@H]2[C@@H]3CC[C@H]4C[C@@H](NCCCNCCCCN)CC[C@]4(C)[C@H]3CC[C@]12C", "note": "[Compound 319]", "values": [{"measurement": "control of B16 melanoma", "setting": "B16 melanoma; compound 319 subcutaneous, C57B mice, FIG. 6", "result": "almost comparable to squalamine"}, {"measurement": "potency as an NHE inhibitor", "setting": "NHE", "result": "superior to squalamine"}, {"measurement": "tadpole response", "setting": "[4]", "result": "common vascular occlusive effect"}, {"measurement": "effect on vitelline capillaries / chick embryo", "setting": "[6]", "result": "especially active"}]}
